Source: patent US20240376056A1, “PHENYL ACETAMIDE BASED IL-17A MODULATORS AND USES THEREOF” (DiCE Alpha, Inc., priority 2021, published 2024)

Biological target: T1, IL-17A/A (Homo sapiens, UniProt Q16552)
T1 construct: purchased Genscript Z03228
T1 sequence (Q16552 24-155): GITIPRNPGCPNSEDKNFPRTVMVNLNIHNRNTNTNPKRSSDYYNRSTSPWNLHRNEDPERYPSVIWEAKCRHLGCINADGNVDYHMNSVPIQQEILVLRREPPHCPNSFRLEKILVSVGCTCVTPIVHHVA
Test: HEK-Blue IL-17A/A inhibition assay (SEAP reporter)
Assay type: cell-based
Details: HEK-Blue cells (HEK 293 expressing IL-17RA, IL-17RC, Act1); IL-17A/A stimulation; 20 hours; SEAP read at A630; 4-parameter fit
Method: The HEK-Blue #NC108637 […]. Cells were grown and prepared for assays according to the manufacturer's instructions. This cell line consists of HEK 293 cells that were designed to expressed IL-17R^A, IL-17RC, and the ActI adapter molecule, the combination of which. when stimulated by IL-17A/A activates a NFtcB promoter and drives expression of a recombinant Secreted Alkaline Phosphatase (SEAP) geneprotein. Media from the cells is then added to a development reagent (Quanti-Blue Substrate, Fisher #NC971 1613), and read at A630.
Compounds were titrated in DMSO. with a top final compound concentration of 10 uM, 1 uM, or 0.3 uM, and added to the cells immediately before adding IL-17A/A (Genscript #Z03228). The cells, compound, and IL-17A/A were then incubated for 20 hours before media was removed for SEAP analysis. The resulting inhibition curve was then analyzed using Graphpad Prism 7.0, and IC50 values were determined using a 4-parameter nonlinear fit. DMSO was added to a universal final concentration of 0.1% to optimze background.

Compound	IC50
CCn1nccc1C(=O)N[C@H](C(=O)Nc1cc(C(F)(F)F)c(C(C)C(=O)NC(CO)C(F)(F)F)cc1F)C(C1CC1)C1CC1 (single isomer, unassigned) [Compound 240]	< 100 nM
COc1cc(NC(=O)[C@@H](NC(=O)c2ccnn2C(C)C)C(C2CC2)C2CC2)c(F)cc1C(C)C(=O)N1CC(O)CC1C(F)(F)F (single isomer, unassigned) [Compound 182]	> 1000 nM
CC(=O)NC1CCN(C(=O)[C@@H](C)c2ccc(NC(=O)[C@@H](NC(=O)c3ccnn3C(C)C)C(C3CC3)C3CC3)c(F)c2)C1 (stereo partly drawn) [Compound 136, N-((2S)-1-((4-((2S)-1-(3-acetamidopyrrolidin-1-yl)-1-oxopropan-2-yl)-2-fluorophenyl)amino)-3,3-dicyclopropyl-1-oxopropan-2-yl)-1-isopropyl-1H-pyrazole-5-carboxamide]	> 1000 nM
Cc1cc(NC(=O)[C@@H](NC(=O)c2ccnn2C(C)C)C(C2CC2)C2CC2)c(F)cc1C(C)C(=O)N1CC(O)CC1C(F)(F)F (single isomer, unassigned) [Compound 172]	100 to 1000 nM
CCn1nccc1C(=O)N[C@H](C(=O)Nc1c(F)cc(C(C)C(=O)NCC(F)(F)F)cc1F)C(C1CC1)C1CC1 (single isomer, unassigned) [Compound 170]	> 1000 nM
CC(C)n1nccc1C(=O)N[C@H](C(=O)Nc1ccc([C@H](C)C(=O)NCC(F)(F)C(F)(F)F)cc1F)C(C1CC1)C1CC1 [Compound 44, N-((S)-1,1-dicyclopropyl-3-((2-fluoro-4-((S)-1-oxo-1-((2,2,3,3,3-pentafluoropropyl)amino)propan-2-yl)phenyl)amino)-3-oxopropan-2-yl)-1-isopropyl-1H-pyrazole-5-carboxamide]	100 to 1000 nM
CC(C)n1nccc1C(=O)N[C@H](C(=O)Nc1ccc([C@H](C)C(=O)NCC(C)(F)F)cc1F)C(C1CC1)C1CC1 [Compound 57, N-((S)-1,1-dicyclopropyl-3-((4-((S)-1-((2,2-difluoropropyl)amino)-1-oxopropan-2-yl)-2-fluorophenyl)amino)-3-oxopropan-2-yl)-1-isopropyl-1H-pyrazole-5-carboxamide]	100 to 1000 nM
CC(C)n1nccc1C(=O)N[C@H](C(=O)Nc1ccc([C@H](C)C(=O)NC2CC2C(F)F)cc1F)C(C1CC1)C1CC1 (stereo partly drawn) [Compound 25, N-((2S)-1.1-dicyclopropyl-3-((4-((2S)-1-((2-(difluoromethyl)cyclopropyl)amino)-1-oxopropan-2-yl)-2-fluorophenyl)amino)-3-oxopropan-2-yl)-1-isopropyl-1H-pyrazole-5-carboxamide]	100 to 1000 nM
CC[C@@H](c1ccc(Cl)cc1)[C@H](NC(=O)c1ccnn1CC)C(=O)Nc1ccc([C@H](C)C(=O)N(C)CC(F)(F)F)cc1F [Compound 72, N-((2S,3S)-3-(4-chlorophenyl)-1-((2-fluoro-4-((S)-1-(methyl(2,2,2-trifluoroethyl)amino)-1-oxopropan-2-yl)phenyl)amino)-1-oxopentan-2-yl)-1-ethyl-1H-pyrazole-5-carboxamide]	100 to 1000 nM
CC(C)n1nccc1C(=O)N[C@H](C(=O)Nc1ccc([C@H](C)C(=O)NC2(C(F)(F)F)CNC2)cc1F)C(C1CC1)C1CC1 [Compound 52, N-((S)-1.1-dicyclopropyl-3-((2-fluoro-4-((S)-1-oxo-1-((3-(trifluoromethyl)azetidin-3-yl)amino)propan-2-yl)phenyl)amino)-3-oxopropan-2-yl)-1-isopropyl-1H-pyrazole-5-carboxamide]	> 1000 nM
CCc1cc(NC(=O)[C@@H](NC(=O)c2ccnn2C(C)C)C(C2CC2)C2CC2)c(F)cc1[C@H](C)C(=O)NCC(F)(F)F [Compound 111, N-((S)-1,1-dicyclopropyl-3-((5-ethyl-2-fluoro-4-((S)-1-oxo-1-((2,2,2-trifluoroethyl)amino)propan-2-yl)phenyl)amino)-3-oxopropan-2-yl)-1-isopropyl-1H-pyrazole-5-carboxamide]	< 100 nM
